# Tests used:
# [1] = biological target: T1, 5-hydroxytryptamine receptor 1A (Homo sapiens) (UniProt P08908); settings: HeLa
# T1 sequence (whole entry): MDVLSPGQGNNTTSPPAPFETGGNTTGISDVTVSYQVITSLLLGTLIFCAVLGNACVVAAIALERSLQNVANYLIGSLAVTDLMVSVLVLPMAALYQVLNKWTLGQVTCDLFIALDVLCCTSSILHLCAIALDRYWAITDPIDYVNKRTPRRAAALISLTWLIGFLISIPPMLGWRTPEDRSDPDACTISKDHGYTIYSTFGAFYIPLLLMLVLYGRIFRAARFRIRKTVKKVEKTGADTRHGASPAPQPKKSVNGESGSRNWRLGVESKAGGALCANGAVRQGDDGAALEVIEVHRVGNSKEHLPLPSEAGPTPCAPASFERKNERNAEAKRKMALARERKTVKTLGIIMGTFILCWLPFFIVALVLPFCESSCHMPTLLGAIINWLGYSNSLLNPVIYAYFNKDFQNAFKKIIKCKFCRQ
# Description: Agonist activity at human 5HT1A receptor expressed in HeLa cell membranes by [35S]GTPgammaS binding assay
# [2] = biological target: T2, Alpha-1B adrenergic receptor (Homo sapiens, UniProt P35368); experiment: Displacement of [3H]prazosin from human recombinant alpha1B adrenergic receptor expressed in CHO cell membranes after 30 mins
# T2 sequence (P35368 whole entry): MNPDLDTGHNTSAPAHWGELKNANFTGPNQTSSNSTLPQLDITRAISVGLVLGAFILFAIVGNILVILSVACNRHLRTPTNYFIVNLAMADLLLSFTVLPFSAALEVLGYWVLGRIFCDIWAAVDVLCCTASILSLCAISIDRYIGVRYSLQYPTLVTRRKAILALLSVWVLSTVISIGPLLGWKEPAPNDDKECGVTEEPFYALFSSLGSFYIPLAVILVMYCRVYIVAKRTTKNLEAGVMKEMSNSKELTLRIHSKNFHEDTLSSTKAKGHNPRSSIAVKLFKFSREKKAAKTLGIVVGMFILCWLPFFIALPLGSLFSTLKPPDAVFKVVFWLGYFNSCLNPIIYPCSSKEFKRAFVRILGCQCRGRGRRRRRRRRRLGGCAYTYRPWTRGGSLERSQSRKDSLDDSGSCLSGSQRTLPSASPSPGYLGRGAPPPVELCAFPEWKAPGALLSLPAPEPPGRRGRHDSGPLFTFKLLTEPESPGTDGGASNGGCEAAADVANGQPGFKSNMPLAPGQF
# [3] = test system: PC-3; experiment: Cytotoxicity against human PC3 cells after 48 hrs by sulforhodamine B assay; format: functional; settings: PC-3, 48 h
# [4] = test system: PC-3; experiment: Cytotoxicity against human PC3 cells assessed as concentration required for tumor growth inhibition after 48 hrs by sulforhodamine B assay; format: functional; settings: PC-3, 48 h
# [5] = biological target: T3, Alpha-1D adrenergic receptor (Homo sapiens, UniProt P25100); experiment: Displacement of [3H]prazosin from human recombinant alpha1D adrenergic receptor expressed in CHO cell membranes after 30 mins
# T3 sequence (P25100 whole entry): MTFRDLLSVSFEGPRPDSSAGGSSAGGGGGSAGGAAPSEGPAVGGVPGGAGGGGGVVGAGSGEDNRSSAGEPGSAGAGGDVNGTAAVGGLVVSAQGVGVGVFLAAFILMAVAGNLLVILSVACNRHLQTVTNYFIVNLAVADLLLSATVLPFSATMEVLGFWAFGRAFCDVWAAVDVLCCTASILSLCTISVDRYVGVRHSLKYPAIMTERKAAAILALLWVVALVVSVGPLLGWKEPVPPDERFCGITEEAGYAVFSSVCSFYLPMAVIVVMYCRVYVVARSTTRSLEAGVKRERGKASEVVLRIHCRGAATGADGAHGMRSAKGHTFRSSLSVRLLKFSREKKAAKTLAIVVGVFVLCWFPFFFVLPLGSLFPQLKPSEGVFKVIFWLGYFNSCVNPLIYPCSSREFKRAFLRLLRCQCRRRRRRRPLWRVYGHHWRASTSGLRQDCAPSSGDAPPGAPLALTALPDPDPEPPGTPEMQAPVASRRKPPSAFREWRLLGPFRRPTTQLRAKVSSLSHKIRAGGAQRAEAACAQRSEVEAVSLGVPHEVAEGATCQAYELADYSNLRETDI
# [6] = biological target: T4, 5-hydroxytryptamine receptor 1A (Homo sapiens, UniProt P08908); experiment: Displacement of [3H]8-OH-DPAT from human recombinant 5HT1A receptor expressed in HeLa cell membranes after 30 mins
# T4 sequence (P08908 whole entry): T1 sequence (whole entry)
# [7] = biological target: T5, Alpha-1A adrenergic receptor (Homo sapiens, UniProt P35348); experiment: biochemical
# T5 sequence (P35348 whole entry): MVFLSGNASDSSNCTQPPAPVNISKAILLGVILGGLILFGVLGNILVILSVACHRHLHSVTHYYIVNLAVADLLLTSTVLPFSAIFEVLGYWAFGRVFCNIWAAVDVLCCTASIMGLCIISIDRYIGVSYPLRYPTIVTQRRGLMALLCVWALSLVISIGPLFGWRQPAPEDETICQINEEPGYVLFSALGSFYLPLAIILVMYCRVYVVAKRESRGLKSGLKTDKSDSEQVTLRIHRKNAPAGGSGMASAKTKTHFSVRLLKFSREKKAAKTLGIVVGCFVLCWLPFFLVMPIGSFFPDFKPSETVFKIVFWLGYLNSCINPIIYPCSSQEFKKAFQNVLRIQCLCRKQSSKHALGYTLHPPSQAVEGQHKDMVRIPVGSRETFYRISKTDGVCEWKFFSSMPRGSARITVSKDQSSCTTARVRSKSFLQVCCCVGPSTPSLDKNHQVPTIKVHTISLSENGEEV
# Description: Displacement of [3H]prazosin from human recombinant alpha1A adrenergic receptor expressed in CHO cell membranes after 30 mins
# [8] = biological target: T1, 5-hydroxytryptamine receptor 1A (Homo sapiens); settings: HeLa; remark: listed apart in the source
# Description: Partial agonist activity at human 5HT1A receptor expressed in HeLa cell membranes after 20 mins by [35S]GTPgammaS binding assay
# [9] = test system: PC-3; experiment: Cytotoxicity against human PC3 cells transfected with sialpha1D-AR after 48 hrs by sulforhodamine B assay; format: functional; settings: PC-3, 48 h; for CC50: read-out: LC50 (the source's name)
# [10] = test system: PC-3; experiment: Ratio of GI50 for human PC3 cells transfected with sialpha1D-AR to GI50 for human PC3 cells; format: functional
# [11] = test system: PC-3; experiment: Ratio of concentration required for tumor growth inhibition of human PC3 cells transfected with sialpha1D-AR to concentration required for tumor growth inhibition of human PC3 cells; format: functional
# [12] = test system: PC-3; experiment: Cytotoxicity against human PC3 cells transfected with siGLO after 48 hrs by sulforhodamine B assay; format: functional; settings: PC-3, 48 h; for CC50: read-out: LC50 (the source's name)
# [13] = test system: PC-3; experiment: Ratio of LC50 for human PC3 cells transfected with sialpha1D-AR to LC50 for human PC3 cells; format: functional
# [14] = test system: PC-3; experiment: Cytotoxicity against human PC3 cells transfected with sialpha1D-AR assessed as concentration required for tumor growth inhibition after 48 hrs by sulforhodamine B assay; format: functional; settings: PC-3, 48 h
# [15] = test system: PC-3; experiment: Cytotoxicity against human PC3 cells transfected with siGLO assessed as concentration required for tumor growth inhibition after 48 hrs by sulforhodamine B assay; format: functional; settings: PC-3, 48 h
structure (smiles),measurement,setting,value
NCCc1c[nH]c2ccc(O)cc12,pD2,[1],7.3
COc1ccccc1N1CCN(CCN2C(=O)CC3(CCCC3)CC2=O)CC1,pD2,[1],9.27
COc1cccc(OC)c1OCCNC[C@H]1COCC(c2ccccc2)(c2ccccc2)O1,pD2,[1],8.3
same,Ki,[2],1660 nM
same,GI50,[3],16000 nM
same,LC50,[3],37000 nM
same,TGI,[4],30000 nM
same,Ki,[5],724 nM
same,Ki,[6],0.55 nM
same,Ki,[7],> 1000 nM
COc1cccc(OC)c1OCCNC[C@@H]1COCC(c2ccccc2)(c2ccccc2)O1,pD2,[1],5.88
same,Ki,[2],195 nM
same,GI50,[3],32000 nM
same,LC50,[3],65000 nM
same,TGI,[4],58000 nM
same,Ki,[5],56.2 nM
same,Ki,[6],44.7 nM
same,Ki,[7],166 nM
COc1cccc(OC)c1OCCNCC1COc2ccccc2O1 (stereo unspecified),GI50,[3],64600 nM
c1ccc(OCCNC[C@@H]2COCC(c3ccccc3)(c3ccccc3)O2)cc1,pD2,[8],7.82
same,GI50,[9],10200 nM
same,CC50,[9],52100 nM
same,Ki,[2],52.5 nM
same,RatioGI50,[10],17
same,GI50,[3],600 nM
same,LC50,[3],4000 nM
same,Ratio,[11],12.9
same,TGI,[4],2100 nM
same,GI50,[12],900 nM
same,CC50,[12],5800 nM
same,Ki,[5],3.24 nM
same,Ki,[6],1.48 nM
same,Ki,[7],129 nM
same,RatioLC50,[13],13
same,TGI,[14],27100 nM
same,TGI,[15],2500 nM
COc1cccc(OC)c1OCCNC[C@@H]1COc2ccccc2O1,Ki,[6],40.7 nM
COc1cccc(OC)c1OCCNC[C@H]1COc2ccccc2O1,Ki,[6],2.45 nM
COc1ccccc1OCCNC[C@@H]1COCC(c2ccccc2)(c2ccccc2)O1,pD2,[8],7.7
same,Ki,[2],21.9 nM
same,GI50,[3],4000 nM
same,TGI,[4],9000 nM
same,Ki,[5],1.38 nM
same,Ki,[6],0.603 nM
same,Ki,[7],16.6 nM
c1ccc(OCCNC[C@H]2COCC(c3ccccc3)(c3ccccc3)O2)cc1,pD2,[8],9.19
same,GI50,[9],20700 nM
same,CC50,[9],> 300000 nM
same,Ki,[2],170 nM
same,GI50,[3],19100 nM
same,LC50,[3],> 300000 nM
same,TGI,[4],43000 nM
same,GI50,[12],22800 nM
same,CC50,[12],> 300000 nM
same,Ki,[5],83.2 nM
same,Ki,[6],0.398 nM
same,Ki,[7],437 nM
same,TGI,[14],49200 nM
same,TGI,[15],41700 nM
c1ccc(OCCNCC2COCC(c3ccccc3)(c3ccccc3)O2)cc1 (racemic),GI50,[9],23600 nM
same,CC50,[9],39800 nM
same,pD2,[1],9.11
same,Ki,[2],120 nM
same,GI50,[3],3000 nM
same,LC50,[3],8000 nM
same,TGI,[4],6000 nM
same,GI50,[12],4100 nM
same,CC50,[12],10700 nM
same,Ki,[5],3.63 nM
same,Ki,[6],0.589 nM
same,Ki,[7],170 nM
same,TGI,[14],25000 nM
same,TGI,[15],7100 nM
COc1cc2nc(N3CCN(C(=O)C4COc5ccccc5O4)CC3)nc(N)c2cc1OC (stereo unspecified) [DOXAZOSIN],GI50,[3],26900 nM
COc1ccccc1OCCNC[C@H]1COCC(c2ccccc2)(c2ccccc2)O1,pD2,[8],9.19
same,Ki,[2],417 nM
same,GI50,[3],21000 nM
same,TGI,[4],34000 nM
same,Ki,[5],25.1 nM
same,Ki,[6],0.309 nM
same,Ki,[7],257 nM
COc1cccc(OC)c1OCCNCC1COCC(c2ccccc2)(c2ccccc2)O1 (racemic),pD2,[1],8.28
same,Ki,[2],324 nM
same,GI50,[3],14000 nM
same,LC50,[3],45000 nM
same,TGI,[4],32000 nM
same,Ki,[5],66.1 nM
same,Ki,[6],1.41 nM
same,Ki,[7],339 nM
COc1ccccc1OCCNCC1COCC(c2ccccc2)(c2ccccc2)O1 (racemic),pD2,[1],9.4
same,Ki,[2],56.2 nM
same,GI50,[3],9000 nM
same,TGI,[4],16000 nM
same,Ki,[5],1.15 nM
same,Ki,[6],0.661 nM
same,Ki,[7],27.5 nM

# — ChEMBL document CHEMBL2311529, “Structure-activity relationships in 1,4-benzodioxan-related compounds. 11. (1) reversed enantioselectivity of 1,4-dioxane derivatives in α1-adrenergic and 5-HT1A receptor binding sites recognition” (J Med Chem, 2013)
